From US20240228488A1 (TAKEDA PHARMACEUTICAL COMPANY LIMITED, priority 2021, published 2024)

Biological target: human activated kallikrein enzyme (Homo sapiens, UniProt P03952)
Assay: Plasma kallikrein inhibition, fluorogenic PFR-AMC substrate, 500 pM activated kallikrein format
Format: biochemical
Conditions: 500 pM activated kallikrein, 300 uM PFR-AMC, 30 min preincubation, 10 min reaction; read-out: Primary Dose Response Assay: Average EC50
Outline: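 500 pM enz + cpd, 30 min RT preinc; start w/ PFR-AMC 300 uM; 10 min RT; Ex380/Em460. Buffer: Tris 20 mM pH 7.5, EDTA 1 mM, NaCl 150 mM, PEG-400 0.1%, Triton 0.1%. EC50.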

Chain of human activated kallikrein enzyme (P03952 391-638 limits assumed): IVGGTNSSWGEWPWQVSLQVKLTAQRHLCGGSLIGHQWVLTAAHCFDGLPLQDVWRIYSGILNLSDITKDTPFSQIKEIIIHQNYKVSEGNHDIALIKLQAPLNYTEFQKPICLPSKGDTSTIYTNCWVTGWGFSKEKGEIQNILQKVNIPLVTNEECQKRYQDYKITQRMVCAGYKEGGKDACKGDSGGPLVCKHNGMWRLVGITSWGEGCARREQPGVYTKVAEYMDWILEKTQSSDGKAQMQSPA
Chain of human activated kallikrein enzyme (P03952 20-390 partner limits assumed): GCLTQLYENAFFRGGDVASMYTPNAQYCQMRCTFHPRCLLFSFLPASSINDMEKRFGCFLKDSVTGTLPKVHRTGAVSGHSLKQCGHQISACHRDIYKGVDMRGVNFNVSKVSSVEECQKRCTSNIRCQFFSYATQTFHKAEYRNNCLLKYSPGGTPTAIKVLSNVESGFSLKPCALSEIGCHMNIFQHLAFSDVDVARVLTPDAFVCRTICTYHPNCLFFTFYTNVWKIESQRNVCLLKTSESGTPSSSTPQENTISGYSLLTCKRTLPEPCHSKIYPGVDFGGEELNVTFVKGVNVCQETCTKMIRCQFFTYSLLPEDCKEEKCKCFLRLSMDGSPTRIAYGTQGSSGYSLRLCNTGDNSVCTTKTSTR

Structure (SMILES)	EC50
N#Cc1ccc(Cl)cc1[C@H]1C[C@@H]1C(=O)Nc1cc(NCc2cn3cc(C4CC4)cc(N4CCCC4=O)c3n2)ncn1 (racemic) [Example 334]	< 1 nM
Cc1ccnc([C@H]2C[C@@H]2C(=O)Nc2cc(OC(C)c3cn4cc(C5CC5)cc(N5CC(=O)N(C)C5=O)c4n3)c(C)nn2)n1 (stereo partly drawn) [Example 35, (1S,2S)-N-(5-(1-(6-cyclopropyl-8-(3-methyl-2,4-dioxoimidazolidin-1-yl)imidazo[1,2-α]pyridin-2-yl)ethoxy)-6-methylpyridazin-3-yl)-2-(4-methylpyrimidin-2-yl)cyclopropane-1-carboxamide]	< 1 nM
Cc1ccnc([C@H]2C[C@@H]2C(=O)Nc2nncc(N[C@H](C)c3cn4cc(C5CC5)cc(N5CC(=O)N(C)C5=O)c4n3)n2)n1 [Example 665, (1S,2S)—N-(5-(((R)-1-(6-cyclopropyl-8-(3-methyl-2,4-dioxoimidazolidin-1-yl)imidazo[1,2-a]pyridin-2-yl)ethyl)amino)-1,2,4-triazin-3-yl)-2-(4-methylpyrimidin-2-yl)cyclopropane-1-carboxamide]	< 1 nM
Cc1ccnc([C@H]2C[C@@H]2C(=O)Nc2cc(NC(c3cn4cc(C5CC5)cc(N5CC(=O)N(C)C5=O)c4n3)C(F)(F)F)ncn2)n1 (stereo partly drawn) [Example 370, (1S,2S)-N-(6-((1-(6-cyclopropyl-8-(3-methyl-2,4-dioxoimidazolidin-1-yl)imidazo[1,2-a]pyridin-2-yl)-2,2,2-trifluoroethyl)amino)pyrimidin-4-yl)-2-(4-methylpyrimidin-2-yl)cyclopropane-1-carboxamide]	10 to 100 nM
O=C(Nc1cc(NCc2cn3cc(C4CC4)ccc3n2)ccn1)[C@H]1C[C@@H]1c1cc(Cl)ccn1 (single isomer, unassigned) [Example I-269, rac-(1S*,2S*)-2-(4-chloropyridin-2-yl)-N-(4-(((6-cyclopropylimidazo[1,2-a]pyridin-2-yl)methyl)amino)pyridin-2-yl)cyclopropane-1-carboxamide]	10 to 100 nM
COc1ccc(CN2C(=O)CN(c3cc(C4CC4)cn4cc(CNc5cc(NC(=O)[C@H]6C[C@@H]6c6cccc(Cl)c6)ncn5)nc34)C2=O)cc1 [Example 397, (1S,2S)-2-(3-chlorophenyl)-N-(6-(((6-cyclopropyl-8-(3-(4-methoxybenzyl)-2,4-dioxoimidazolidin-1-yl)imidazo[1,2-a]pyridin-2-yl)methyl)amino)pyrimidin-4-yl)cyclopropane-1-carboxamide]	10 to 100 nM
Cc1ccnc([C@H]2C[C@@H]2C(=O)Nc2ccc(C#N)c(OCc3cn4cc(C5CC5)cc(N5CC(=O)N(C)C5=O)c4n3)c2)n1 [Example 669, (1S,2S)—N-(4-cyano-3-((6-cyclopropyl-8-(3-methyl-2,4-dioxoimidazolidin-1-yl)imidazo[1,2-a]pyridin-2-yl)methoxy)phenyl)-2-(4-methylpyrimidin-2-yl)cyclopropane-1-carboxamide]	< 1 nM
Cc1ccnc([C@H]2C[C@@H]2C(=O)Nc2cc(N[C@H](C)c3cn4cc(C5CC5)cc(N5CC(=O)NC5=O)c4n3)ncn2)n1 [Example 533, (1S,2S)-N-(6-(((R)-1-(6-cyclopropyl-8-(2,4-dioxoimidazolidin-1-yl)imidazo[1,2-a]pyridin-2-yl)ethyl)amino)pyrimidin-4-yl)-2-(4-methylpyrimidin-2-yl)cyclopropane-1-carboxamide]	< 1 nM
O=C(NCc1cn(Cc2cn3cc(C4CC4)cc(-n4cnnc4)c3n2)nn1)[C@H]1C[C@@H]1c1cccc(Cl)c1 [Example 591, (1S,2S)-2-(3-chlorophenyl)-N-((1-((6-cyclopropyl-8-(4H-1,2,4-triazol-4-yl)imidazo[1,2-a]pyridin-2-yl)methyl)-1H-1,2,3-triazol-4-yl)methyl)cyclopropane-1-carboxamide]	1 to 10 nM
O=C(Nc1cc(NCc2cn3cc(C4CC4)ccc3n2)ccn1)[C@@H]1C[C@]12C(=O)Nc1ccc(Cl)cc12 (racemic) [Example 514, rac-(1R*,2S*)-5′-chloro-N-(4-(((6-cyclopropylimidazo[1,2-a]pyridin-2-yl)methyl)amino)pyridin-2-yl)-2′-oxospiro[cyclopropane-1,3′-indoline]-2-carboxamide]	10 to 100 nM
N#Cc1ccc(Cl)cc1[C@H]1C[C@@H]1C(=O)Nc1cc(NCc2cn3cc(C4CC4)ccc3n2)ncn1 (racemic) [Example 48, rac-(1S*,2S*)-2-(5-chloro-2-cyanophenyl)-N-(6-(((6-cyclopropylimidazo[1,2-a]pyridin-2-yl)methyl)amino)pyrimidin-4-yl)cyclopropane-1-carboxamide]	1 to 10 nM
Cc1ccnc([C@H]2C[C@@H]2C(=O)Nc2cc(NCc3cn4cc(C5CC5)ccc4n3)ccc2S(C)(=O)=O)n1 (racemic) [Example 619, rac-(1S*,2S*)—N-(5-(((6-cyclopropylimidazo[1,2-a]pyridin-2-yl)methyl)amino)-2-(methylsulfonyl)phenyl)-2-(4-methylpyrimidin-2-yl)cyclopropane-1-carboxamide]	1000 to 6000 nM
O=C(Nc1cc(NCc2cn3cc(C4CC4)ccc3n2)ccn1)[C@H]1C[C@@H]1c1cc(Cl)cnn1 (racemic) [Example I-211, rac-(1S*,2S*)-2-(5-chloropyridazin-3-yl)-N-(4-(((6-cyclopropylimidazo[1,2-a]pyridin-2-yl)methyl)amino)pyridin-2-yl)cyclopropane-1-carboxamide]	10 to 100 nM
Cc1ccnc([C@H]2C[C@@H]2C(=O)Nc2cc(C#N)cc(NCc3cn4cc(C5CC5)cc(N5CC(=O)N(C)C5=O)c4n3)c2)n1 [Example I-655, (1S,2S)—N-(3-cyano-5-(((6-cyclopropyl-8-(3-methyl-2,4-dioxoimidazolidin-1-yl)imidazo[1,2-a]pyridin-2-yl)methyl)amino)phenyl)-2-(4-methylpyrimidin-2-yl)cyclopropane-1-carboxamide]	< 1 nM
CC(NC(=O)[C@H]1C[C@@H]1c1cccc(Cl)c1)c1cn(Cc2cn3cc(C4CC4)ccc3n2)nn1 (single isomer, unassigned) [Example 590, rac-(1S*,2S*)-2-(3-chlorophenyl)-N-(1-(1-((6-cyclopropylimidazo[1,2-a]pyridin-2-yl)methyl)-1H-1,2,3-triazol-4-yl)ethyl)cyclopropane-1-carboxamide]	10 to 100 nM
Cc1ccnc([C@H]2C[C@@H]2C(=O)Nc2nncc(OC(C)c3cn4cc(C5CC5)cc(N5CC(=O)N(C)C5=O)c4n3)n2)n1 (stereo partly drawn) [Example 672, (1S,2S)—N-(5-(1-(6-cyclopropyl-8-(3-methyl-2,4-dioxoimidazolidin-1-yl)imidazo[1,2-a]pyridin-2-yl)ethoxy)-1,2,4-triazin-3-yl)-2-(4-methylpyrimidin-2-yl)cyclopropane-1-carboxamide]	< 1 nM
COCc1nc(NC(=O)[C@H]2C[C@@H]2c2nccc(C)n2)cc(N[C@H](C)c2cn3cc(C)cc(N4CC(=O)N(C)C4=O)c3n2)n1 [Example 438, (1S,2S)-N-(2-(methoxymethyl)-6-(((R)-1-(6-methyl-8-(3-methyl-2,4-dioxoimidazolidin-1-yl)imidazo[1,2-a]pyridin-2-yl)ethyl)amino)pyrimidin-4-yl)-2-(4-methylpyrimidin-2-yl)cyclopropane-1-carboxamide]	< 1 nM
CC1CCC(=O)N1c1cc(C2CC2)cn2cc(CNc3ccnc(NC(=O)[C@H]4C[C@@H]4c4cccc(Cl)c4)c3)nc12 (mixture of isomers) [Example 89, (1S,2S)-2-(3-chlorophenyl)-N-(4-(((6-cyclopropyl-8-(2-methyl-5-oxopyrrolidin-1-yl)imidazo[1,2-a]pyridin-2-yl)methyl)amino)pyridin-2-yl)cyclopropane-1-carboxamide]	< 1 nM
CC1CCN(c2cc(C3CC3)cn3cc(CNc4cc(NC(=O)[C@H]5C[C@@H]5c5cccc(Cl)c5)ncn4)nc23)C1=O (relative stereo) [Example 67, rac-(1S*,2S*)-2-(3-chlorophenyl)-N-(6-(((6-cyclopropyl-8-(3-methyl-2-oxopyrrolidin-1-yl)imidazo[1,2-a]pyridin-2-yl)methyl)amino)pyrimidin-4-yl)cyclopropane-1-carboxamide]	1 to 10 nM
COc1cc(NCc2cn3cc(C4CC4)ccc3n2)cc(NC(=O)[C@H]2C[C@@H]2c2cc(Cl)ccn2)n1 [Example 339, (1S,2S)-2-(4-chloropyridin-2-yl)-N-(4-(((6-cyclopropylimidazo[1,2-a]pyridin-2-yl)methyl)amino)-6-methoxypyridin-2-yl)cyclopropane-1-carboxamide]	1 to 10 nM
O=C(Nc1nccc2nn(Cc3cn4cc(C5CC5)ccc4n3)nc12)[C@H]1C[C@@H]1c1cccc(Cl)c1 [Example 583, (1S,2S)-2-(3-chlorophenyl)-N-(2-((6-cyclopropylimidazo[1,2-a]pyridin-2-yl)methyl)-2H-[1,2,3]triazolo[4,5-c]pyridin-4-yl)cyclopropane-1-carboxamide]	1 to 10 nM
O=C(Nc1cc(NCc2cn3cc(C4CC4)cc(CO)c3n2)ccn1)[C@H]1C[C@@H]1c1cccc(Cl)c1 (racemic) [Example 98, rac-(1S*,2S*)-2-(3-chlorophenyl)-N-(4-(((6-cyclopropyl-8-(hydroxymethyl)imidazo[1,2-a]pyridin-2-yl)methyl)amino)pyridin-2-yl)cyclopropane-1-carboxamide]	< 1 nM
O=C(Nc1cc(NCc2cn3cc(C4CC4)cc(N4CCC(O)CC4)c3n2)ncn1)[C@H]1C[C@@H]1c1cccc(Cl)c1 (stereo in doubt) [Example I-3, (1S,2S)-2-(3-chlorophenyl)-N-(6-(((6-cyclopropyl-8-(4-hydroxypiperidin-1-yl)imidazo[1,2-a]pyridin-2-yl)methyl)amino)pyrimidin-4-yl)cyclopropane-1-carboxamide]	1 to 10 nM
